# Laboratory results from paper PMC8237267 (Journal of Medicinal Chemistry, 2021).
# Entries after “also recorded” stand apart in the source; their conditions may differ.
# Test: Glutathione stability / reactivity assay
# Type: in vitro ADME
# Conditions: GSH adduct formation by LC/MS/MS; KT-531 up to 24 h
# Protocol: Although covalent modification of HDAC6 was not observed (Figure S2), the PFBS group is susceptible to nucleophilic aromatic substitution by biological nucleophiles. A previously described high-throughput in vitro glutathione-reactivity assay was conducted, where compounds were incubated in the presence of glutathione (GSH) and the formation of a GSH-compound adduct was monitored over time via LC/MS/MS.[50]
# Compound was added to PBS and 5 mM GSH to reach a final concentration of 5 μM. […] Samples were vortexed and centrifuged for 45 min at 3220g. Aliquots were diluted by ultrapure water, and used for LC/MS/MS analysis. Peak area ratios were determined and percent compounds remaining was calculated by the following equation: [drawing 1] where peak area ratio (t min) is the peak area ratio of control and test compounds at t min; peak area ratio0min is the peak area ratio of control and test compounds at the zero time point. In vitro half-life (t1/2) = −(0.693/k).
structure (smiles),measurement,value
"O=C(NO)c1ccc(CN(C2CC2)S(=O)(=O)c2cc(F)c(F)c(F)c2F)cc1 [Compound 14, 4-(((N-Cyclopropyl-2,3,4,5-tetrafluorophenyl)sulfonamido)methyl)-N-hydroxybenzamide]",reactivity with glutathione,no discernible reactivity with GSH; also recorded: no discernible SNAr reaction with GSH
